Target: Recombinant human HSP90a (Homo sapiens, UniProt P07900)
Assay: radioligand filter binding test ([3H]17AAG competition) for HSP90 inhibition
Details: competition with [3H]17AAG 0.08 μM, HSP90 1.5 μg/assay, 22° C., 30 min
From the text: Test Method for the Measurement of HSP90 Inhibitors
The binding of geldanamycin or 17-allylamino-17-demethoxygeldanamycin (17AAG) to HSP90 and competitive inhibition thereof can be utilized in order to determine the inhibitory activity of the compounds according to the invention (Carreras et al. 2003, Chiosis et al. 2002).
In the specific case, a radioligand filter binding test is used. The radioligand used here is tritium-labelled 17-allylaminogeldanamycin, [3H]17AAG. This filter binding test allows a targeted search for inhibitors which interfere with the ATP binding site.
Recombinant human HSP90a (E. coli expressed, 95% purity);
[3H]17AAG (17-allylaminogeldanamycin, [allylamino-2,3-^3H. Specific activity: 1.11×10^12 Bq/mmol (Moravek, MT-1717);
HEPES filter buffer (50 mM HEPES, pH 7.0, 5 mM MgCl2, BSA 0.01%) Multiscreen FB (1 μm) filter plate (Millipore, MAFBNOB 50).
The 96-well microtitre filter plates are firstly irrigated and coated with 0.1% of polyethylenimine.
The test is carried out under the following conditions:
Reaction temperature 22° C.
Reaction time: 30 min., shaking at 800 rpm
50 mM HEPES HCl, pH 7.0, 5 mM MgCl2, 0.01% (w/v) of BSA
At the end of the reaction, the supernatant in the filter plate is removed by suction with the aid of a vacuum manifold (Multiscreen Separation System, Millipore), and the filter is washed twice.
The filter plates are then measured in a beta counter (Microbeta, Wallac) with scintillator (Microscint 20, Packard).
“% of control” is determined from the “counts per minutes” values, and the IC-50 value of a compound is calculated therefrom.

IC50, 0.01 to 1 µM:
CCNCc1ccccc1-c1ccc2nc(N)nc(C(=O)N3Cc4ccccc4C3)c2c1 [Compound A978]
CN1CCN(S(=O)(=O)c2ccccc2-c2ccc3nc(N)nc(C(=O)N4Cc5ccccc5C4)c3c2)CC1 [Compound A980, {2-amino-6-[2-(4-methylpiperazine-1-sulfonyl)phenyl]quinazolin-4-yl}-(1,3-dihydroisoindol-2-yl)methanone]
Nc1nc(C(=O)N2Cc3ccccc3C2)c2cc(-c3ccccc3S(=O)(=O)N3CCNCC3)ccc2n1 [Compound A981]
CN(C)CCN(C)S(=O)(=O)c1ccccc1-c1ccc2nc(N)nc(C(=O)N3Cc4ccccc4C3)c2c1 [Compound A982]
CN(C)CCOc1ccccc1-c1ccc2nc(N)nc(C(=O)N3Cc4ccccc4C3)c2c1 [Compound A986, {2-amino-6-[2-(2-dimethylaminoethoxy)phenyl]quinazolin-4-yl}-(1,3-dihydroisoindol-2-yl)methanone]
Nc1nc(C(=O)N2Cc3ccccc3C2)c2cc(C#CCCO)ccc2n1 [Compound A997]
CN1CCN(Cc2cc(O)ccc2-c2ccc3nc(N)nc(C(=O)N4Cc5ccccc5C4)c3c2)CC1 [Compound A1002]
Nc1nc(C(=O)N2Cc3ccccc3C2)c2cc(-c3ccc(O)cc3CO)ccc2n1 [Compound A1006]
Nc1nc(C(=O)N2Cc3ccccc3C2)c2cc(-c3ccccc3C(=O)N3CCNCC3)ccc2n1 [Compound A1007]

— US8501754B2, “Quinazolinamide derivatives” (MERCK PATENT GmbH, priority 2007, dated 2013)
